Measurements taken from PubChem BioAssay AID248 (DTP/NCI, 2004).
Values joined by “and” are separate entries in the source; they are usually repeats but may differ in a detail not shown here. Identical values can stand only once. Inconclusive results and toxic doses are left out. No stated cut-off is given here; in the data, active means T/C of 150% or more; inactive means T/C below 125%.

Tested on: L1210 leukemia ip in BDF1 mice, survival T/C
Assay: NCI In Vivo Anticancer Drug Screen. Data for tumor model L1210 Leukemia (intraperitoneal) in B6D2F1 (BDF1) mice
Details: endpoint: mean survival time, higher = longer survival
How it was run: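 Value reflects the ratio of survival in compound-treated mice to survival in vehicle-treated controls, with both groups carrying the same transplanted tumor.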

[1] = dose: 100.0 mg/kg/injection, schedule: Q04DX003 (ip), vehicle: carboxymethylcellulose (CMC)
[2] = dose: 200.0 mg/kg/injection, schedule: Q04DX003 (ip), vehicle: carboxymethylcellulose (CMC)
[3] = dose: 25.0 mg/kg/injection, schedule: Q01DX009 (ip), vehicle: saline

Measured: T/C

O=S(=O)(O)c1ccc(O)c2ncccc12.[Zn+2]
inactive: dose: 50.0 mg/kg/injection, schedule: Q01DX001 (ip), vehicle: saline 100 % of control | dose: 100.0 mg/kg/injection, schedule: Q01DX001 (ip), vehicle: saline 97 % of control | dose: 200.0 mg/kg/injection, schedule: Q01DX001 (ip), vehicle: saline 97 % of control | dose: 400.0 mg/kg/injection, schedule: Q01DX001 (ip), vehicle: saline 100 % of control

C=C1c2ccccc2N(C)C1(COc1ccc(Br)cc1)OC(=O)c1cccc(Cl)c1 (configuration not stated)
inactive: dose: 100.0 mg/kg/injection, schedule: Q04DX002 (ip), vehicle: Klucel (hydroxypropylcellulose) (HPC) 95 % of control | dose: 200.0 mg/kg/injection, schedule: Q04DX002 (ip), vehicle: Klucel (hydroxypropylcellulose) (HPC) 95 % of control | dose: 400.0 mg/kg/injection, schedule: Q04DX002 (ip), vehicle: Klucel (hydroxypropylcellulose) (HPC) 98 % of control

CCSc1ccc2c(cc1=O)C(NC(=S)Nc1ccccc1)CCc1cc(OC)c(OC)c(OC)c1-2 (configuration not stated)
inactive: [1] 102 % of control | [2] 107 % of control

CCCSc1ccccn1
inactive: dose: 25.0 mg/kg/injection, schedule: Q04DX003 (ip), vehicle: saline 101 % of control | dose: 50.0 mg/kg/injection, schedule: Q04DX003 (ip), vehicle: saline 93 % of control | dose: 100.0 mg/kg/injection, schedule: Q04DX003 (ip), vehicle: saline 95 % of control

COc1ccc(/C=C/c2ccc3ccccc3[n+]2C)cc1
inactive: dose: 12.5 mg/kg/injection, schedule: Q01DX009 (ip), vehicle: saline with Tween-80 94 % of control | dose: 25.0 mg/kg/injection, schedule: Q01DX009 (ip), vehicle: saline with Tween-80 115 % of control | dose: 25.0 mg/kg/injection, schedule: Q04DX003 (ip), vehicle: Klucel (hydroxypropylcellulose) (HPC) 101 % of control | dose: 50.0 mg/kg/injection, schedule: Q01DX009 (ip), vehicle: saline with Tween-80 115 % of control | dose: 50.0 mg/kg/injection, schedule: Q04DX003 (ip), vehicle: Klucel (hydroxypropylcellulose) (HPC) 106 % of control

O=C(Nc1ccc(Oc2ccc(NC(=O)Nc3cccc(F)c3)cc2)cc1)Nc1cccc(F)c1
inactive: dose: 25.0 mg/kg/injection, schedule: Q01DX009 (ip), vehicle: carboxymethylcellulose (CMC) 89 % of control and 90 % of control | dose: 50.0 mg/kg/injection, schedule: Q01DX009 (ip), vehicle: carboxymethylcellulose (CMC) 86 % of control and 87 % of control | dose: 100.0 mg/kg/injection, schedule: Q01DX001 (ip), vehicle: carboxymethylcellulose (CMC) 93 % of control and 94 % of control | dose: 100.0 mg/kg/injection, schedule: Q01DX009 (ip), vehicle: carboxymethylcellulose (CMC) 100 % of control and 106 % of control and 86 % of control | dose: 100.0 mg/kg/injection, schedule: Q04DX002 (ip), vehicle: carboxymethylcellulose (CMC) 97 % of control and 99 % of control | [1] 94 % of control and 105 % of control | dose: 200.0 mg/kg/injection, schedule: Q01DX001 (ip), vehicle: carboxymethylcellulose (CMC) 96 % of control and 105 % of control | dose: 200.0 mg/kg/injection, schedule: Q01DX009 (ip), vehicle: carboxymethylcellulose (CMC) 99 % of control | dose: 200.0 mg/kg/injection, schedule: Q04DX002 (ip), vehicle: carboxymethylcellulose (CMC) 95 % of control and 108 % of control | [2] 94 % of control and 92 % of control | dose: 400.0 mg/kg/injection, schedule: Q01DX001 (ip), vehicle: carboxymethylcellulose (CMC) 96 % of control and 91 % of control | dose: 400.0 mg/kg/injection, schedule: Q01DX009 (ip), vehicle: carboxymethylcellulose (CMC) 93 % of control | dose: 400.0 mg/kg/injection, schedule: Q04DX002 (ip), vehicle: carboxymethylcellulose (CMC) 95 % of control and 89 % of control | dose: 400.0 mg/kg/injection, schedule: Q04DX003 (ip), vehicle: carboxymethylcellulose (CMC) 91 % of control and 92 % of control

CN(C)S(=O)(=O)c1ccc2c(c1)N(CCCN1CCN(S(C)(=O)=O)CC1)c1ccccc1S2
inactive: [3] 95 % of control | dose: 50.0 mg/kg/injection, schedule: Q01DX009 (ip), vehicle: saline 101 % of control | dose: 100.0 mg/kg/injection, schedule: Q01DX009 (ip), vehicle: saline 91 % of control | dose: 200.0 mg/kg/injection, schedule: Q01DX009 (ip), vehicle: saline 98 % of control | dose: 400.0 mg/kg/injection, schedule: Q01DX009 (ip), vehicle: saline 106 % of control

O=C(NCCN1CCCCC1)C(O)(c1ccccc1)C1CCCCC1 (configuration not stated)
inactive: dose: 75.0 mg/kg/injection, schedule: Q01DX001 (ip), vehicle: other 97 % of control | dose: 150.0 mg/kg/injection, schedule: Q01DX001 (ip), vehicle: other 100 % of control

CCc1ncc(C)n1Cc1ccccc1
inactive: dose: 6.25 mg/kg/injection, schedule: Q01DX009 (ip), vehicle: saline 109 % of control | dose: 12.5 mg/kg/injection, schedule: Q01DX009 (ip), vehicle: saline 102 % of control | [3] 102 % of control and 115 % of control

CCOc1ccccc1NC(=O)c1cccc(C(=O)Nc2ccccc2OCC)c1
inactive: dose: 100.0 mg/kg/injection, schedule: Q01DX009 (ip), vehicle: Klucel (hydroxypropylcellulose) (HPC) 92 % of control | dose: 100.0 mg/kg/injection, schedule: Q04DX003 (ip), vehicle: Klucel (hydroxypropylcellulose) (HPC) 90 % of control | dose: 200.0 mg/kg/injection, schedule: Q01DX009 (ip), vehicle: Klucel (hydroxypropylcellulose) (HPC) 88 % of control | dose: 200.0 mg/kg/injection, schedule: Q04DX003 (ip), vehicle: Klucel (hydroxypropylcellulose) (HPC) 96 % of control | dose: 400.0 mg/kg/injection, schedule: Q01DX009 (ip), vehicle: Klucel (hydroxypropylcellulose) (HPC) 88 % of control | dose: 400.0 mg/kg/injection, schedule: Q04DX003 (ip), vehicle: Klucel (hydroxypropylcellulose) (HPC) 90 % of control
